Test systems include A498 renal; CCRF-CEM leukemia; COLO 205 colon; HCT-116 colon; HS 578T breast; HT29 colon; MDA-MB-435; NCI-H460 lung; NCI-H522 lung; PC-3 prostate; RPMI-8226 leukemia; RXF 393 renal; SF-295 CNS; SK-MEL-5 melanoma; SNB-75 CNS; SR leukemia; U251 CNS; UO-31 renal.
Common to all, as to experiment: inhibition of tumour cell growth, NCI panel, 48 h

Molecules are shown by their SMILES.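 Each compound was tested at five concentrations against cells in 96-well plates for 48 hours. Definition used: TGI = concentration required for complete inhibition of growth.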

For `Nc1ncc(C=O)c(NCC2(CO)CCC2)n1`, the TGI with A498 renal, in the test on CCRF-CEM leukemia, in the test with COLO 205 colon, in the test on HCT-116 colon, with HS 578T breast and in the test with HT29 colon was over 100 µM each time. For the same compound, the TGI with MDA-MB-435, in the test on NCI-H460 lung, in the test with NCI-H522 lung, in the test on PC-3 prostate, in the test on RPMI-8226 leukemia and in the test on RXF 393 renal was over 100 µM throughout. Moreover, the TGI with SF-295 CNS was over 100 µM; in the test with SK-MEL-5 melanoma, 86.9 µM; with SNB-75 CNS, over 100 µM; with SR leukemia, over 100 µM; in the test on U251 CNS it was over 100 µM; in the test with UO-31 renal, over 100 µM.

For `O=CC1C(Cl)=Nc2nc3ccccc3n2C1c1ccccc1` (stereo not drawn), the TGI in the test with A498 renal came to 23 µM; in the test with CCRF-CEM leukemia, 63.1 µM; in the test with COLO 205 colon, 58.9 µM; in the test on HCT-116 colon it was 70.5 µM; with HS 578T breast, 25.4 µM; with HT29 colon it was 37.7 µM. The TGI in the test on MDA-MB-435 is over 100 µM; in the test on NCI-H460 lung it was over 100 µM; in the test with NCI-H522 lung it was 27.3 µM; in the test on PC-3 prostate, 40.7 µM; in the test on RPMI-8226 leukemia, 43.8 µM; with RXF 393 renal it was 30.9 µM. Moreover, the TGI with SF-295 CNS is over 100 µM; in the test with SK-MEL-5 melanoma it was 45.5 µM; in the test on SNB-75 CNS, 33.7 µM; in the test on SR leukemia, 14.4 µM; with U251 CNS it was 33.7 µM; in the test on UO-31 renal, 48.4 µM.

With `COC(=O)Cc1c([C@H]2[C@H](CC(=O)OC)c3ccccc3N2S(=O)(=O)c2ccc(C)cc2)[nH]c2ccccc12`, the TGI with A498 renal, in the test with CCRF-CEM leukemia, in the test with COLO 205 colon, in the test on HCT-116 colon, in the test with HS 578T breast and in the test with HT29 colon was over 100 µM in each case. Besides, the TGI with MDA-MB-435, in the test on NCI-H460 lung, in the test on NCI-H522 lung, in the test with PC-3 prostate, in the test on RPMI-8226 leukemia and in the test on RXF 393 renal was over 100 µM in each case. The TGI is over 100 µM in the test with SF-295 CNS; over 100 µM with SK-MEL-5 melanoma; over 100 µM in the test on SNB-75 CNS; over 84.9 µM in the test with SR leukemia; over 100 µM in the test on U251 CNS; over 100 µM with UO-31 renal.

In the case of `CCOC(=O)c1c(N2CCCC2)[nH]c(=O)c(C(c2ccc(Cl)c([N+](=O)[O-])c2)c2c(O)c(C(=O)OCC)c(N3CCCC3)[nH]c2=O)c1O`, the TGI in the test with A498 renal is over 100 µM; in the test on CCRF-CEM leukemia, 79.3 µM; in the test with COLO 205 colon, over 100 µM; with HCT-116 colon, over 100 µM; with HS 578T breast it was over 100 µM; in the test on MDA-MB-435 it was over 100 µM. Moreover, the TGI with NCI-H460 lung is over 100 µM; with NCI-H522 lung, 74.1 µM; in the test with PC-3 prostate it was 83.9 µM; with RPMI-8226 leukemia, over 100 µM; in the test with RXF 393 renal it was 99.6 µM; in the test on SF-295 CNS, over 100 µM. Moreover, the TGI with SK-MEL-5 melanoma was over 100 µM; in the test on SNB-75 CNS, 34.4 µM; with SR leukemia it was over 100 µM; in the test with U251 CNS it was 36.9 µM; in the test with UO-31 renal, 66.6 µM.

Take `c1ccc2c(c1)c1c3c(c4c(n32)=NCCN4)CCC1`: the TGI in the test on A498 renal is 65.8 µM; in the test on CCRF-CEM leukemia, over 100 µM; in the test on COLO 205 colon it was over 100 µM; with HCT-116 colon, over 100 µM; with HS 578T breast, over 100 µM; in the test with HT29 colon, 56.7 µM. For the same compound, the TGI is over 100 µM in the test with MDA-MB-435; over 100 µM in the test with NCI-H460 lung; 61.2 µM in the test on NCI-H522 lung; over 100 µM with PC-3 prostate; 63.2 µM in the test with RPMI-8226 leukemia; 60.8 µM in the test on RXF 393 renal. Also, the TGI in the test with SF-295 CNS was over 100 µM; in the test with SK-MEL-5 melanoma it was over 100 µM; in the test with SNB-75 CNS, 71.5 µM; in the test with SR leukemia, 47.4 µM; in the test with U251 CNS, over 100 µM; with UO-31 renal, over 100 µM.

In the case of `COc1cc2cc3c4c(cc(OC)c(OC)c4c2cc1OC)CCN3C`, the TGI in the test with A498 renal was over 38.1 µM; in the test on CCRF-CEM leukemia it was 7.27 µM; with COLO 205 colon, 39.6 µM; in the test with HCT-116 colon, over 25.7 µM; with HS 578T breast it was over 50 µM; in the test with HT29 colon, over 37.5 µM. The TGI in the test on MDA-MB-435 was over 23.4 µM; with NCI-H460 lung it was over 27.3 µM; in the test with NCI-H522 lung it was 23.9 µM; in the test with PC-3 prostate, over 29.9 µM; in the test with RPMI-8226 leukemia, 12.9 µM; in the test on RXF 393 renal, 12.3 µM. Besides, the TGI in the test with SF-295 CNS is over 31.8 µM; with SK-MEL-5 melanoma, 16.6 µM; in the test with SNB-75 CNS, 27.8 µM; in the test on SR leukemia it was over 10.8 µM; with U251 CNS it was over 50 µM; with UO-31 renal, 40.6 µM.

Turning to `Nc1nc(Cl)c2ncn(Cc3cccc(CCl)c3)c2n1`, the TGI in the test with A498 renal is 50.8 µM; with CCRF-CEM leukemia it was over 30.7 µM; with COLO 205 colon, 30.1 µM; in the test with HCT-116 colon, 4.05 µM; in the test with HS 578T breast, 36.9 µM; with HT29 colon it was 19.2 µM. For the same compound, the TGI amounted to 29 µM in the test on MDA-MB-435; 27 µM in the test with NCI-H460 lung; 7.03 µM in the test on NCI-H522 lung; 26.4 µM in the test with PC-3 prostate; 9.81 µM in the test with RPMI-8226 leukemia; 10.5 µM in the test on RXF 393 renal. For the same compound, the TGI in the test on SF-295 CNS was 21.3 µM; with SK-MEL-5 melanoma it was 15.9 µM; with SNB-75 CNS it was 26.8 µM; in the test with SR leukemia it was over 28.3 µM; in the test on U251 CNS, 6.15 µM; in the test with UO-31 renal it was 33.7 µM.

With `C=CCNC1=C2C[C@@H](C)C[C@H](OC)[C@H](O)[C@@H](C)/C=C(\C)[C@H](OC(N)=O)[C@@H](OC)/C=C\C=C(/C)C(=O)NC(=CC1=O)C2=O`, the TGI came out at 30 µM in the test on A498 renal; 10.6 µM in the test on CCRF-CEM leukemia; 1.67 µM in the test on COLO 205 colon; 26.1 µM with HCT-116 colon; 47.5 µM in the test on HS 578T breast; 12.1 µM in the test on HT29 colon. Moreover, the TGI stood at 17 µM in the test with MDA-MB-435; 15.9 µM in the test on NCI-H460 lung; 22.3 µM in the test on NCI-H522 lung; 40.7 µM in the test on PC-3 prostate; 26.2 µM in the test on RPMI-8226 leukemia; 10.1 µM in the test with RXF 393 renal. Further, the TGI turned out to be 7.46 µM in the test on SF-295 CNS; 16.5 µM in the test with SK-MEL-5 melanoma; 2.72 µM in the test on SNB-75 CNS; 10.3 µM in the test on SR leukemia; 49.5 µM with U251 CNS; 21.4 µM in the test with UO-31 renal.

These data come from PubChem BioAssay (NCI).
